Data reported in patent US12129237B2, “Substituted diaminocarboxamide and diaminocarbonitrile pyrimidines, compositions thereof, and methods of treatment therewith” (SIGNAL PHARMACEUTICALS, LLC, priority 2011, dated 2024).

Target: T1, JNK1 (Homo sapiens, UniProt P45983)
T1 construct: purchased Carna Biosciences
Assay: JNK1 biochemical assays (one or more of: time resolved fluorescence, Z'-LYTE Cascade, radioactive)
Conditions: tested in one or more of the JNK1 biochemical assays; read-out: Act. Level (JNK1 biochemical assay IC50 activity level)

T1 sequence (P45983 whole entry): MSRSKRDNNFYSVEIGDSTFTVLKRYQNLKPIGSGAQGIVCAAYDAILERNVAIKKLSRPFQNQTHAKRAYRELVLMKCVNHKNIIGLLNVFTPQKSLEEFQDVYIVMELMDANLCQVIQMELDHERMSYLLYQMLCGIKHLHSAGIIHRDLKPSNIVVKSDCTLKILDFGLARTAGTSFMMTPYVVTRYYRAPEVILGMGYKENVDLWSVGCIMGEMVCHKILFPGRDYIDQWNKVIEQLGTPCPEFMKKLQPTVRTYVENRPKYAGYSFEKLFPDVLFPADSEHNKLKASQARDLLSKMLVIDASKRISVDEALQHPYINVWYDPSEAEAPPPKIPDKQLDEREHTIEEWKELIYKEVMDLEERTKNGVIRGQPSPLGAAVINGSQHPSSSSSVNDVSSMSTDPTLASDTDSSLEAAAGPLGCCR

| Structure (SMILES) | IC50 |
| --- | --- |
| CCO[C@H]1CC[C@H](Nc2ncc(C(N)=O)c(NC[C@H](C)O)n2)CC1 [Example A-102, 2-((1r,4S)-4-ethoxycyclohexylamino)-4-((S)-2-hydroxypropylamino)pyrimidine-5-carboxamide] | < 0.2 µM |
| CCO[C@H]1CC[C@H](Nc2ncc(C(N)=O)c(N[C@H]3CCC[C@@H]3OC)n2)CC1 [Example A-103, 2-((1r,4S)-4-ethoxycyclohexylamino)-4-((1S,2S)-2-methoxycyclopentylamino)pyrimidine-5-carboxamide] | < 0.2 µM |
| CCO[C@H]1CC[C@H](Nc2ncc(C(N)=O)c(N[C@H]3CCOC3)n2)CC1 [Example A-105, 2-((1r,4S)-4-ethoxycyclohexylamino)-4-((S)-tetrahydrofuran-3-ylamino)pyrimidine-5-carboxamide] | < 0.2 µM |
| CCO[C@H]1CC[C@@H](Nc2nc(NC(C)(C)CO)ncc2C(N)=O)CC1 [Example A-106, 4-((1s,4s)-4-ethoxycyclohexylamino)-2-(1-hydroxy-2-methylpropan-2-ylamino)pyrimidine-5-carboxamide] | 0.2 to 0.8 µM |
| CC(C)CC(=O)N1CCC(Nc2ncc(C(N)=O)c(NC3CCC3)n2)CC1 [Example A-107, 4-(cyclobutylamino)-2-(1-(3-methylbutanoyl)piperidin-4-ylamino)pyrimidine-5-carboxamide] | < 0.2 µM |
| NC[C@H]1CC[C@@H](Nc2nc(NC3CCOCC3)ncc2C(N)=O)CC1 [Example A-108, 4-((1s,4s)-4-(aminomethyl)cyclohexylamino)-2-(tetrahydro-2H-pyran-4-ylamino)pyrimidine-5-carboxamide] | < 0.2 µM |
| CC(C)CC(=O)N1CCC(Nc2ncc(C(N)=O)c(NC3CCOCC3)n2)CC1 [Example A-110, 2-(1-(3-methylbutanoyl)piperidin-4-ylamino)-4-(tetrahydro-2H-pyran-4-ylamino)pyrimidine-5-carboxamide] | 0.2 to 0.8 µM |
| CC(C)(O)[C@H]1CC[C@@H](Nc2nc(NC3CCOCC3)ncc2C(N)=O)CC1 [Example A-111, 4-((1s,4s)-4-(2-hydroxypropan-2-yl)cyclohexylamino)-2-(tetrahydro-2H-pyran-4-ylamino)pyrimidine-5-carboxamide] | < 0.2 µM |
| NC(=O)c1cnc(NC2CCOCC2)nc1N[C@H]1CC[C@@H](C(=O)N2CCCC2)CC1 [Example A-112, 4-((1s,4s)-4-(pyrrolidine-1-carbonyl)cyclohexylamino)-2-(tetrahydro-2H-pyran-4-ylamino)pyrimidine-5-carboxamide] | 0.8 to 1 µM |
| CCO[C@H]1CC[C@@H](Nc2nc(NC3CCN(C(=O)CC)CC3)ncc2C(N)=O)CC1 [Example A-113, 4-((1s,4s)-4-ethoxycyclohexylamino)-2-(1-propionylpiperidin-4-ylamino)pyrimidine-5-carboxamide] | < 0.2 µM |
| CCC(=O)N1CCC(Nc2ncc(C(N)=O)c(NC3CCCC3)n2)CC1 [Example A-114, 4-(cyclopentylamino)-2-(1-propionylpiperidin-4-ylamino)pyrimidine-5-carboxamide] | < 0.2 µM |
| CN(C)C(=O)[C@H]1CC[C@@H](Nc2nc(NC3CCOCC3)ncc2C(N)=O)CC1 [Example A-116, 4-((1s,4s)-4-(dimethylcarbamoyl)cyclohexylamino)-2-(tetrahydro-2H-pyran-4-ylamino)pyrimidine-5-carboxamide] | 0.2 to 0.8 µM |
| C[C@H](Nc1ncc(C(N)=O)c(N[C@H]2CC[C@@H](CO)CC2)n1)C1CCCCC1 [Example A-122, 2-((S)-1-cyclohexylethylamino)-4-((1s,4R)-4-(hydroxymethyl)cyclohexylamino)pyrimidine-5-carboxamide] | < 0.2 µM |
| COC(=O)N1CCC(Nc2ncc(C(N)=O)c(NC3CCCCC3)n2)CC1 [Example A-123, methyl 4-(5-carbamoyl-4-(cyclohexylamino)pyrimidin-2-ylamino)piperidine-1-carboxylate] | < 0.2 µM |
| CCC(=O)N[C@H]1CC[C@@H](Nc2nc(N[C@@H](C)C3CCCCC3)ncc2C(N)=O)CC1 [Example A-124, 2-((S)-1-cyclohexylethylamino)-4-((1s,4R)-4-propionamidocyclohexylamino)pyrimidine-5-carboxamide] | < 0.2 µM |
| C[C@H](Nc1ncc(C(N)=O)c(N[C@H]2CC[C@@H](N)CC2)n1)C1CCCCC1 [Example A-126, 4-((1s,4R)-4-aminocyclohexylamino)-2-((S)-1-cyclohexylethylamino)pyrimidine-5-carboxamide] | < 0.2 µM |
| CC(=O)N1CCC(Nc2nc(N[C@@H](C)C3CCCCC3)ncc2C(N)=O)CC1 [Example A-127, (S)-4-(1-acetylpiperidin-4-ylamino)-2-(1-cyclohexylethylamino)pyrimidine-5-carboxamide] | < 0.2 µM |
| CCC(=O)N[C@H]1CC[C@@H](Nc2nc(NC3CCCC3)ncc2C(N)=O)CC1 [Example A-129, 2-(cyclopentylamino)-4-((1s,4s)-4-propionamidocyclohexylamino)pyrimidine-5-carboxamide] | 0.2 to 0.8 µM |

Now from value to compound:

| IC50 | Structure (SMILES) |
| --- | --- |
| < 0.2 µM | COC[C@H]1CC[C@H](Nc2ncc(C(N)=O)c(N[C@H]3CCC(O)C3)n2)CC1 (stereo partly drawn) [Example A-94, 4-((1S,3R)-3-hydroxycyclopentylamino)-2-((1r,4S)-4-(methoxymethyl)cyclohexylamino)pyrimidine-5-carboxamide] |
| < 0.2 µM | CCO[C@H]1CC[C@@H](Nc2nc(N[C@@H]3CC[C@@H](O)C3)ncc2C(N)=O)CC1 [Example A-95, 4-((1s,4S)-4-ethoxycyclohexylamino)-2-((1R,3R)-3-hydroxycyclopentylamino)pyrimidine-5-carboxamide] |
| < 0.2 µM | CCO[C@H]1CC[C@H](Nc2ncc(C(N)=O)c(N[C@@H]3CCC(O)C3)n2)CC1 (stereo partly drawn) [Example A-96, 2-((1r,4R)-4-ethoxycyclohexylamino)-4-((1R,3S)-3-hydroxycyclopentylamino)pyrimidine-5-carboxamide] |
| < 0.2 µM | CO[C@H]1CC[C@@H](Nc2nc(N[C@@H]3CC[C@@H](CO)C3)ncc2C(N)=O)CC1 [Example A-97, 2-((1R,3R)-3-(hydroxymethyl)cyclopentylamino)-4-((1s,4S)-4-methoxycyclohexylamino)pyrimidine-5-carboxamide] |
| < 0.2 µM | CO[C@H]1CC[C@H](Nc2ncc(C(N)=O)c(N[C@H]3CC[C@H](CO)C3)n2)CC1 [Example A-98, 4-((1S,3S)-3-(hydroxymethyl)cyclopentylamino)-2-((1r,4S)-4-methoxycyclohexylamino)pyrimidine-5-carboxamide] |
| < 0.2 µM | COC[C@H]1CC[C@@H](Nc2nc(N[C@H]3CCC(O)C3)ncc2C(N)=O)CC1 (stereo partly drawn) [Example A-99, 2-((1S,3S)-3-hydroxycyclopentylamino)-4-((1s,4R)-4-(methoxymethyl)cyclohexylamino)pyrimidine-5-carboxamide] |
| < 0.2 µM | CO[C@H]1CC[C@@H](Nc2nc(N[C@H]3CC[C@H](O)CC3)ncc2C(N)=O)CC1 [Example A-100, 2-((1r,4r)-4-hydroxycyclohexylamino)-4-((1s,4s)-4-methoxycyclohexylamino)pyrimidine-5-carboxamide] |
| < 0.2 µM | CO[C@H]1CC[C@H](Nc2ncc(C(N)=O)c(N[C@H]3CC[C@@H](O)CC3)n2)CC1 [Example A-101, 4-((1s,4s)-4-hydroxycyclohexylamino)-2-((1r,4r)-4-methoxycyclohexylamino)pyrimidine-5-carboxamide] |
| < 0.2 µM | CCO[C@H]1CC[C@H](Nc2ncc(C(N)=O)c(N[C@@H]3CCC[C@@H]3O)n2)CC1 [Example A-104, 2-((1r,4R)-4-ethoxycyclohexylamino)-4-((1R,2S)-2-hydroxycyclopentylamino)pyrimidine-5-carboxamide] |
| < 0.2 µM | COC[C@H]1CC[C@@H](Nc2nc(N[C@H]3CC[C@H](O)CC3)ncc2C(N)=O)CC1 [Example A-109, 2-((1r,4r)-4-hydroxycyclohexylamino)-4-((1s,4s)-4-(methoxymethyl)cyclohexylamino)pyrimidine-5-carboxamide] |
| < 0.2 µM | CCO[C@H]1CC[C@@H](Nc2nc(NC3CCOCC3)ncc2C(N)=O)CC1 [Example A-115, 4-((1s,4s)-4-ethoxycyclohexylamino)-2-(tetrahydro-2H-pyran-4-ylamino)pyrimidine-5-carboxamide] |
| < 0.2 µM | CCO[C@H]1CC[C@H](Nc2ncc(C(N)=O)c(N[C@H]3CCC[C@@H]3O)n2)CC1 [Example A-117, 2-((1r,4S)-4-ethoxycyclohexylamino)-4-((1S,2S)-2-hydroxycyclopentylamino)pyrimidine-5-carboxamide] |
| < 0.2 µM | CO[C@H]1CC[C@H](Nc2ncc(C(N)=O)c(N[C@H]3CC[C@@H](C(=O)N(C)C)CC3)n2)CC1 [Example A-118, 4-((1s,4s)-4-(dimethylcarbamoyl)cyclohexylamino)-2-((1r,4r)-4-methoxycyclohexylamino)pyrimidine-5-carboxamide] |
| < 0.2 µM | CO[C@H]1CC[C@H](Nc2ncc(C(N)=O)c(N[C@H]3CC[C@@H](CO)CC3)n2)CC1 [Example A-119, 4-((1s,4s)-4-(hydroxymethyl)cyclohexylamino)-2-((1r,4r)-4-methoxycyclohexylamino)pyrimidine-5-carboxamide] |
| < 0.2 µM | CO[C@H]1CC[C@H](Nc2ncc(C(N)=O)c(N[C@H]3CC[C@@H](N)CC3)n2)CC1 [Example A-120, 4-((1s,4s)-4-aminocyclohexylamino)-2-((1r,4r)-4-methoxycyclohexylamino)pyrimidine-5-carboxamide] |
| < 0.2 µM | CO[C@H]1CC[C@H](Nc2ncc(C(N)=O)c(NC3CCC4(CC3)OCCO4)n2)CC1 [Example A-121, 4-(1,4-dioxaspiro[4.5]decan-8-ylamino)-2-((1r,4r)-4-methoxycyclohexylamino)pyrimidine-5-carboxamide] |
| < 0.2 µM | C[C@H](Nc1ncc(C(N)=O)c(N[C@H]2CC[C@@H](O)CC2)n1)C1CCCCC1 [Example A-125, 2-((S)-1-cyclohexylethylamino)-4-((1s,4R)-4-hydroxycyclohexylamino)pyrimidine-5-carboxamide] |
| < 0.2 µM | NC(=O)c1cnc(NC2CCCC2)nc1N[C@H]1CC[C@@H](O)CC1 [Example A-128, 2-(cyclopentylamino)-4-((1s,4s)-4-hydroxycyclohexylamino)pyrimidine-5-carboxamide] |
